Test results published in US20250092064A1, “BENZOTRIAZOLE COMPOUND” (DAIICHI SANKYO COMPANY, LIMITED, priority 2022, published 2025).

What was measured:
[1] = test system: NQO1 activity in Hepa1c1c7 cells; test: NAD(P)H: quinone oxidoreductase-1 (NQO1) enzyme induction assay (in vitro); assay type: cell-based, mouse; details: Mus musculus, Hepa-1c1c7, NQO1 activity with 400 nM test compound as a ratio from the base without compound, about 48 hr
Experimental: The NQO1 assay was performed based on a previous report (Methods in Enzymology 2004; 382: 243-258). Hepa1c1c7 cells (mouse hepatocyte cell line, ATCC, cat. no. CRL-2026) were cultured in D-MEM medium containing 10% FBS and 1% penicillin/streptomycin (5% CO2, 37° C.), and seeded into 96-well plates (Corning REF. 353072) at 1×10^4 cells/well. A portion of the wells were prepared with medium only for background measurement without seeding cells. The next day, 400 nM of the test compound (0.004% of the final concentration in DMSO) dissolved in DMSO was added thereto, and the wells were incubated for about 48 hr. A well without adding the test compound was prepared for base activity assay in part. […] After the medium was removed, 50 μL of the cell lysate was added and incubated at 37° C. for 10 minutes, followed by shaking at room temperature for 10 minutes. 200 μL of reaction solution was added thereto, and allowed to stand for 5 minutes at room temperature. 50 μL of the stop solution was added thereto, and absorbance was measured at 610 nm on a SpectraMax PLUS384 (Molecular devices) or […] Pharma Biomedical). The test results were analyzed in Excel, and the NQO1 activity upon addition of 400 nM of test compound was calculated as a ratio from the base without the compound. NQO1 activity ratio when test compound is added=(absorbance when test compound is added-absorbance of medium only)/(absorbance without addition of compound-absorbance of medium only) [numerical formula 2] The results of each test compound in this test are shown in the following Table 2 (A:5<NQO1 activity ratio, B:3<NQO1 activity ratio≤5).

[2] = molecular target: binding between Nrf2 and Keap1 (Homo sapiens (Human), UniProt Q14145); test: FP assay (in vitro): inhibition of Nrf2-Keap1 binding by fluorescence polarization; details: GST-fused human Keap1 (325-642) 20 nM, FITC-labeled Nrf2 peptide 10 nM, 2 hr at room temperature
Sequence of binding between Nrf2 and Keap1 (Q14145 325-624 limits assumed): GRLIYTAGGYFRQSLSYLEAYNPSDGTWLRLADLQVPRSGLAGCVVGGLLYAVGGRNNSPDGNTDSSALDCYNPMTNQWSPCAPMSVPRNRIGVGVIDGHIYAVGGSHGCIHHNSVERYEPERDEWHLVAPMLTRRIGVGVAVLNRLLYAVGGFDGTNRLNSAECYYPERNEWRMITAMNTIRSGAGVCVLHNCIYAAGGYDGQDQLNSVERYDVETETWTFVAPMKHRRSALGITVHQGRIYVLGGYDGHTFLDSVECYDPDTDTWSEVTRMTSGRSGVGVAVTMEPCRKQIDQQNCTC

Compound	IC50 [2] [nM]	fold induction at 0.4 µM [1]
CC[C@@H]1CN(Cc2cc([C@@H](CC(=O)O)c3ccc4c(nnn4C)c3C)cc3c2CCC3)S(=O)(=O)c2cc(Cl)c(F)cc2O1 [Example 20, (3R)-3-(7-{[(4R)-8-Chloro-4-ethyl-7-fluoro-1,1-dioxido-3,4-dihydro-2H-5,1,2-benzoxathiazepin-2-yl]methyl}-2,3-dihydro-1H-inden-5-yl)-3-(1,4-dimethyl-1H-benzotriazol-5-yl)propanoic acid]	10 to 30	> 5
CC[C@@H]1CN(Cc2cc([C@H](CC(=O)O)c3ccc4c(nnn4C)c3C)cc3c2CCC3)S(=O)(=O)c2cc(Cl)c(F)cc2O1 [Example 21, (3S)-3-(7-{[(4R)-8-Chloro-4-ethyl-7-fluoro-1,1-dioxido-3,4-dihydro-2H-5,1,2-benzoxathiazepin-2-yl]methyl}-2,3-dihydro-1H-inden-5-yl)-3-(1,4-dimethyl-1H-benzotriazol-5-yl)propanoic acid]	≤ 10	> 5
CC[C@@H]1CN(Cc2cc(C(CC(=O)O)c3ccc4c(nnn4C)c3C)cc3c2CCC3)S(=O)(=O)c2cccnc2O1 (stereo partly drawn) [Example 24, 3-(1,4-Dimethyl-1H-benzotriazol-5-yl)-3-(7-{[(4R)-4-ethyl-1,1-dioxido-3,4-dihydro-2H-pyrido[2,3-b][1,4,5]oxathiazepin-2-yl]methyl}-2,3-dihydro-1H-inden-5-yl)propanoic acid]	10 to 30	> 5
CC[C@@H]1CN(Cc2cc(C(CC(=O)O)c3ccc4c(nnn4C)c3C)cc3c2CCC3)S(=O)(=O)c2ccc3ccccc3c2O1 (stereo partly drawn) [Example 26, 3-(1,4-Dimethyl-1H-benzotriazol-5-yl)-3-(7-{[(2R)-2-ethyl-5,5-dioxido-2,3-dihydro-4H-naphtho[1,2-b][1,4,5]oxathiazepin-4-yl]methyl}-2,3-dihydro-1H-inden-5-yl)propanoic acid]	30 to 100	> 5
Cc1c(C(CC(=O)O)c2cc3c(c(CN4CC(C)(C)Oc5ncccc5S4(=O)=O)c2)CCC3)ccc2c1nnn2C (stereo not drawn) [Example 34, 3-(1,4-Dimethyl-1H-benzotriazol-5-yl)-3-{7-[(4,4-dimethyl-1,1-dioxido-3,4-dihydro-2H-pyrido[2,3-b][1,4,5]oxathiazepin-2-yl)methyl]-2,3-dihydro-1H-inden-5-yl}propanoic acid]	10 to 30	> 5
CC[C@@H]1CN(Cc2cc([C@@H](c3ccc4c(nnn4C)c3C)C(C)(C)C(=O)O)cc3c2CCC3)S(=O)(=O)c2cc(Cl)cnc2O1 [Example 38, (3S)-3-(7-{[(4R)-8-Chloro-4-ethyl-1,1-dioxido-3,4-dihydro-2H-pyrido[2,3-b][1,4,5]oxathiazepin-2-yl]methyl}-2,3-dihydro-1H-inden-5-yl)-3-(1,4-dimethyl-1H-benzotriazol-5-yl)-2,2-dimethylpropanoic acid]	≤ 10	> 5

Second part, led by results:

IC50 [2] [nM]	Compound	fold induction at 0.4 µM [1]
≤ 10	CC[C@@H]1CN(Cc2cc([C@@H](CC(=O)O)c3ccc4c(nnn4C)c3C)cc3ccsc23)S(=O)(=O)c2cc(Cl)c(F)cc2O1 [Example 22, (3R)-3-(7-{[(4R)-8-Chloro-4-ethyl-7-fluoro-1,1-dioxido-3,4-dihydro-2H-5,1,2-benzoxathiazepin-2-yl]methyl}-1-benzothiophen-5-yl)-3-(1,4-dimethyl-1H-benzotriazol-5-yl)propanoic acid]	> 5
≤ 10	CC[C@@H]1CN(Cc2cc([C@H](CC(=O)O)c3ccc4c(nnn4C)c3C)cc3ccsc23)S(=O)(=O)c2cc(Cl)c(F)cc2O1 [Example 23, (3S)-3-(7-{[(4R)-8-Chloro-4-ethyl-7-fluoro-1,1-dioxido-3,4-dihydro-2H-5,1,2-benzoxathiazepin-2-yl]methyl}-1-benzothiophen-5-yl)-3-(1,4-dimethyl-1H-benzotriazol-5-yl)propanoic acid]	> 5
10 to 30	CC[C@@H]1CN(Cc2cc(C(CC(=O)O)c3ccc4c(nnn4C)c3C)cc3c2CCC3)S(=O)(=O)c2cc(C(F)(F)F)cnc2O1 (stereo partly drawn) [Example 25, 3-(1,4-Dimethyl-1H-benzotriazol-5-yl)-3-(7-{[(4R)-4-ethyl-1,1-dioxido-8-(trifluoromethyl)-3,4-dihydro-2H-pyrido[2,3-b][1,4,5]oxathiazepin-2-yl]methyl}-2,3-dihydro-1H-inden-5-yl)propanoic acid]	> 5
≤ 10	CC[C@@H]1CN(Cc2cc(C(CC(=O)O)c3ccc4c(nnn4C)c3Cl)cc3c2CCC3)S(=O)(=O)c2cc(Cl)cnc2O1 (stereo partly drawn) [Example 29, 3-(7-{[(4R)-8-Chloro-4-ethyl-1,1-dioxido-3,4-dihydro-2H-pyrido[2,3-b][1,4,5]oxathiazepin-2-yl]methyl}-2,3-dihydro-1H-inden-5-yl)-3-(4-chloro-1-methyl-1H-benzotriazol-5-yl)propanoic acid]	> 5
≤ 10	CC[C@@H]1CN(Cc2cc([C@H](CC(=O)O)c3cc(Cl)c4c(nnn4C)c3C)cc3ccsc23)S(=O)(=O)c2cc(Cl)cnc2O1 [Example 30, (3S)-3-(7-Chloro-1,4-dimethyl-1H-benzotriazol-5-yl)-3-(7-{[(4R)-8-chloro-4-ethyl-1,1-dioxido-3,4-dihydro-2H-pyrido[2,3-b][1,4,5]oxathiazepin-2-yl]methyl}-1-benzothiophen-5-yl)propanoic acid]	3 to 5
≤ 10	CC[C@@H]1CN(Cc2cc([C@@H](CC(=O)O)c3cc(Cl)c4c(nnn4C)c3C)cc3ccsc23)S(=O)(=O)c2cc(Cl)cnc2O1 [Example 31, (3R)-3-(7-Chloro-1,4-dimethyl-1H-benzotriazol-5-yl)-3-(7-{[(4R)-8-chloro-4-ethyl-1,1-dioxido-3,4-dihydro-2H-pyrido[2,3-b][1,4,5]oxathiazepin-2-yl]methyl}-1-benzothiophen-5-yl)propanoic acid]	> 5
≤ 10	CC[C@@H]1CN(Cc2cc([C@@H](CC(=O)O)c3cc(OC(F)F)c4c(nnn4C)c3C)cc3ccsc23)S(=O)(=O)c2cc(Cl)cnc2O1 [Example 32, (3R)-3-(7-{[(4R)-8-Chloro-4-ethyl-1,1-dioxido-3,4-dihydro-2H-pyrido[2,3-b][1,4,5]oxathiazepin-2-yl]methyl}-1-benzothiophen-5-yl)-3-[7-(difluoromethoxy)-1,4-dimethyl-1H-benzotriazol-5-yl]propanoic acid]	> 5
≤ 10	CC[C@@H]1CN(Cc2cc([C@@H](CC(=O)O)c3cc(C4CC4)c4c(nnn4C)c3C)cc3ccsc23)S(=O)(=O)c2cc(Cl)cnc2O1 [Example 37, (3R)-3-(7-{[(4R)-8-Chloro-4-ethyl-1,1-dioxido-3,4-dihydro-2H-pyrido[2,3-b][1,4,5]oxathiazepin-2-yl]methyl}-1-benzothiophen-5-yl)-3-(7-cyclopropyl-1,4-dimethyl-1H-benzotriazol-5-yl)propanoic acid]	3 to 5
10 to 30	CC[C@@H]1CN(Cc2cc([C@@H](CC(=O)O)c3cc(C4CC4)c4c(nnn4C)c3C)cc3c2CCC3)S(=O)(=O)c2cc(Cl)cnc2O1 [Example 39, (3R)-3-(7-{[(4R)-8-Chloro-4-ethyl-1,1-dioxido-3,4-dihydro-2H-pyrido[2,3-b][1,4,5]oxathiazepin-2-yl]methyl}-2,3-dihydro-1H-inden-5-yl)-3-(7-cyclopropyl-1,4-dimethyl-1H-benzotriazol-5-yl)propanoic acid]	3 to 5
